Test results from ChEMBL document CHEMBL1201862, “PubChem BioAssay data set” (2004).
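Method: 48-hour compound exposure of cells in 96-well plates, five concentrations, linear interpolation of endpoints. Here, GI50 denotes the concentration required for 50% inhibition of growth.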 The source made the active and inactive calls. Cut-off read from the data, not from the text of the source: active = GI50 up to about 1.1 µM and inactive = higher.

Tests used:
Assay in all cases: NCI tumour cell line growth inhibition, 48 h
786-0 = test system: 786-0
A498 = test system: A498
A549 = test system: A549
ACHN = test system: ACHN
CAKI-1 = test system: CAKI-1
CCRF-CEM = test system: CCRF-CEM
COLO 205 = test system: COLO 205
DLD-1 = test system: DLD-1
DMS-114 = test system: DMS-114
DMS-273 = test system: DMS-273
EKVX = test system: EKVX
HCC 2998 = test system: HCC 2998
HCT-116 = test system: HCT-116
HCT-15 = test system: HCT-15
HL-60 = test system: HL-60
HOP-18 = test system: HOP-18
HOP-62 = test system: HOP-62
HOP-92 = test system: HOP-92
HT-29 = test system: HT-29
IGROV-1 = test system: IGROV-1
K562 = test system: K562
KM-20L2 = test system: KM-20L2
KM12 = test system: KM12
LOX IMVI = test system: LOX IMVI
LXFL 529 = test system: LXFL 529
M14 = test system: M14
M19-MEL = test system: M19-MEL
MOLT-4 = test system: MOLT-4
Malme-3M = test system: Malme-3M
NCI-H226 = test system: NCI-H226
NCI-H23 = test system: NCI-H23
NCI-H460 = test system: NCI-H460
NCI-H522 = test system: NCI-H522
OVCAR-3 = test system: OVCAR-3
OVCAR-4 = test system: OVCAR-4
OVCAR-5 = test system: OVCAR-5
OVCAR-8 = test system: OVCAR-8
RPMI-8226 = test system: RPMI-8226
RXF 393 = test system: RXF 393
RXF 631 = test system: RXF 631
SF-268 = test system: SF-268
SF-295 = test system: SF-295
SF-539 = test system: SF-539
SK-MEL-5 = test system: SK-MEL-5
SK-OV-3 = test system: SK-OV-3
SN12C = test system: SN12C
SNB-19 = test system: SNB-19
SNB-75 = test system: SNB-75
SNB-78 = test system: SNB-78
SR = test system: SR
SW-620 = test system: SW-620
TK-10 = test system: TK-10
U-251 = test system: U-251
UACC-257 = test system: UACC-257
UACC-62 = test system: UACC-62
UO-31 = test system: UO-31
XF498 = test system: XF498
SK-MEL-28 = test system: SK-MEL-28
SK-MEL-2 = test system: SK-MEL-2

## CC(=O)OCC1OC(NC(=S)N/N=C2\CC(c3ccccc3)Oc3ccccc32)C(OC(C)=O)C(OC(C)=O)C1OC(C)=O (stereo not given)
786-0
  GI50: > 100 µM (inactive)
A498
  GI50: > 100 µM (inactive)
A549
  GI50: > 100 µM (inactive)
ACHN
  GI50: > 100 µM (inactive)
CAKI-1
  GI50: > 100 µM (inactive)
CCRF-CEM
  GI50: > 100 µM (inactive)
COLO 205
  GI50: > 100 µM (inactive)
DLD-1
  GI50: > 100 µM (inactive)
DMS-114
  GI50: > 100 µM (inactive)
DMS-273
  GI50: 56.8 µM (inactive)
EKVX
  GI50: > 100 µM (inactive)
HCC 2998
  GI50: > 100 µM (inactive)
HCT-116
  GI50: > 100 µM (inactive)
HCT-15
  GI50: > 100 µM
HL-60
  GI50: > 100 µM (inactive)
HOP-18
  GI50: > 100 µM (inactive)
HOP-62
  GI50: > 100 µM (inactive)
HOP-92
  GI50: > 100 µM (inactive)
HT-29
  GI50: > 100 µM (inactive)
IGROV-1
  GI50: > 100 µM (inactive)
K562
  GI50: > 100 µM (inactive)
KM-20L2
  GI50: > 100 µM (inactive)
KM12
  GI50: > 100 µM (inactive)
LOX IMVI
  GI50: > 100 µM (inactive)
LXFL 529
  GI50: > 100 µM (inactive)
M14
  GI50: > 100 µM (inactive)
M19-MEL
  GI50: > 100 µM (inactive)
MOLT-4
  GI50: > 100 µM (inactive)
Malme-3M
  GI50: > 100 µM (inactive)
NCI-H226
  GI50: > 100 µM (inactive)
NCI-H23
  GI50: > 100 µM (inactive)
NCI-H460
  GI50: > 100 µM (inactive)
NCI-H522
  GI50: > 100 µM (inactive)
OVCAR-3
  GI50: > 100 µM (inactive)
OVCAR-4
  GI50: > 100 µM (inactive)
OVCAR-5
  GI50: > 100 µM (inactive)
OVCAR-8
  GI50: > 100 µM (inactive)
RPMI-8226
  GI50: > 100 µM (inactive)
RXF 393
  GI50: > 100 µM (inactive)
RXF 631
  GI50: 32 µM (inactive)
SF-268
  GI50: > 100 µM (inactive)
SF-295
  GI50: > 100 µM (inactive)
SF-539
  GI50: > 100 µM (inactive)
SK-MEL-5
  GI50: > 100 µM (inactive)
SK-OV-3
  GI50: > 100 µM (inactive)
SN12C
  GI50: > 100 µM (inactive)
SNB-19
  GI50: > 100 µM (inactive)
SNB-75
  GI50: > 100 µM (inactive)
SNB-78
  GI50: > 100 µM (inactive)
SR
  GI50: > 100 µM (inactive)
SW-620
  GI50: > 100 µM (inactive)
TK-10
  GI50: > 100 µM (inactive)
U-251
  GI50: > 100 µM (inactive)
UACC-257
  GI50: > 100 µM (inactive)
UACC-62
  GI50: > 100 µM (inactive)
UO-31
  GI50: > 100 µM (inactive)
XF498
  GI50: > 100 µM (inactive)

## COc1cc2c3c(c1OC)C1(C=CC(=O)C=C1)C[C@H]3N(C)CC2 [PRONUCIFERINE]
786-0
  GI50: > 100 µM (inactive)
A549
  GI50: > 100 µM (inactive)
ACHN
  GI50: > 100 µM (inactive)
COLO 205
  GI50: > 100 µM (inactive)
DLD-1
  GI50: > 100 µM (inactive)
DMS-114
  GI50: > 100 µM (inactive)
DMS-273
  GI50: > 100 µM (inactive)
EKVX
  GI50: > 100 µM (inactive)
HCC 2998
  GI50: > 100 µM (inactive)
HCT-116
  GI50: > 100 µM (inactive)
HCT-15
  GI50: > 100 µM
HOP-18
  GI50: > 100 µM (inactive)
HOP-92
  GI50: > 100 µM (inactive)
HT-29
  GI50: > 100 µM (inactive)
IGROV-1
  GI50: > 100 µM (inactive)
KM-20L2
  GI50: > 100 µM (inactive)
KM12
  GI50: > 100 µM (inactive)
LOX IMVI
  GI50: > 100 µM (inactive)
LXFL 529
  GI50: > 100 µM (inactive)
M14
  GI50: > 100 µM (inactive)
M19-MEL
  GI50: > 100 µM (inactive)
MOLT-4
  GI50: > 100 µM (inactive)
Malme-3M
  GI50: > 100 µM (inactive)
NCI-H226
  GI50: > 100 µM (inactive)
NCI-H23
  GI50: > 100 µM (inactive)
NCI-H460
  GI50: > 100 µM (inactive)
NCI-H522
  GI50: 74.3 µM (inactive)
OVCAR-3
  GI50: > 100 µM (inactive)
OVCAR-5
  GI50: > 100 µM (inactive)
OVCAR-8
  GI50: > 100 µM (inactive)
RPMI-8226
  GI50: > 100 µM (inactive)
RXF 393
  GI50: 26 µM (inactive)
RXF 631
  GI50: > 100 µM (inactive)
SF-268
  GI50: > 100 µM (inactive)
SF-295
  GI50: > 100 µM (inactive)
SF-539
  GI50: > 100 µM (inactive)
SK-MEL-28
  GI50: > 100 µM (inactive)
SK-MEL-2
  GI50: > 100 µM (inactive)
SK-MEL-5
  GI50: > 100 µM (inactive)
SK-OV-3
  GI50: > 100 µM (inactive)
SN12C
  GI50: > 100 µM (inactive)
SNB-19
  GI50: > 100 µM (inactive)
SNB-75
  GI50: > 100 µM (inactive)
SNB-78
  GI50: > 100 µM (inactive)
SR
  GI50: > 100 µM (inactive)
SW-620
  GI50: > 100 µM (inactive)
TK-10
  GI50: > 100 µM (inactive)
U-251
  GI50: > 100 µM (inactive)
UACC-257
  GI50: > 100 µM (inactive)
UACC-62
  GI50: > 100 µM (inactive)
UO-31
  GI50: > 100 µM (inactive)
XF498
  GI50: > 100 µM (inactive)

## O=[N+]([O-])c1nccn1CC(O)CN1CC1 (stereo not given)
786-0
  GI50: 65.6 µM (inactive)
A498
  GI50: > 100 µM (inactive)
A549
  GI50: > 100 µM (inactive)
ACHN
  GI50: 29.1 µM (inactive)
CAKI-1
  GI50: 39 µM (inactive)
CCRF-CEM
  GI50: 24.7 µM (inactive)
COLO 205
  GI50: 44.6 µM (inactive)
DLD-1
  GI50: 69.3 µM (inactive)
DMS-114
  GI50: 50.7 µM (inactive)
DMS-273
  GI50: 27.4 µM (inactive)
EKVX
  GI50: > 100 µM (inactive)
HCT-116
  GI50: 47.6 µM (inactive)
HCT-15
  GI50: 58.6 µM
HL-60
  GI50: 24.8 µM (inactive)
HOP-18
  GI50: > 100 µM (inactive)
HOP-62
  GI50: 74.3 µM (inactive)
HT-29
  GI50: 56.6 µM (inactive)
IGROV-1
  GI50: 71.3 µM (inactive)
K562
  GI50: 46 µM (inactive)
KM-20L2
  GI50: 61.2 µM (inactive)
KM12
  GI50: 66.8 µM (inactive)
LXFL 529
  GI50: 79.4 µM (inactive)
M14
  GI50: > 100 µM (inactive)
M19-MEL
  GI50: 63.4 µM (inactive)
MOLT-4
  GI50: 32 µM (inactive)
Malme-3M
  GI50: > 100 µM (inactive)
NCI-H226
  GI50: 94 µM (inactive)
NCI-H23
  GI50: 36.4 µM (inactive)
NCI-H460
  GI50: 27.6 µM (inactive)
NCI-H522
  GI50: 21.5 µM (inactive)
OVCAR-3
  GI50: 25.5 µM (inactive)
OVCAR-4
  GI50: 74.5 µM (inactive)
OVCAR-5
  GI50: > 100 µM (inactive)
OVCAR-8
  GI50: 37.8 µM (inactive)
RPMI-8226
  GI50: 49.4 µM (inactive)
RXF 393
  GI50: 25.5 µM (inactive)
RXF 631
  GI50: 40 µM (inactive)
SF-268
  GI50: 91.6 µM (inactive)
SF-295
  GI50: > 100 µM (inactive)
SF-539
  GI50: 55.6 µM (inactive)
SK-MEL-28
  GI50: > 100 µM (inactive)
SK-MEL-2
  GI50: 41.6 µM (inactive)
SK-MEL-5
  GI50: 71.8 µM (inactive)
SK-OV-3
  GI50: 35.1 µM (inactive)
SN12C
  GI50: 61.8 µM (inactive)
SNB-19
  GI50: > 100 µM (inactive)
SNB-75
  GI50: 42.8 µM (inactive)
SNB-78
  GI50: 78 µM (inactive)
SR
  GI50: 27.2 µM (inactive)
SW-620
  GI50: 63.8 µM (inactive)
TK-10
  GI50: > 100 µM (inactive)
U-251
  GI50: 35.6 µM (inactive)
UACC-257
  GI50: 83.9 µM (inactive)
UACC-62
  GI50: 44.8 µM (inactive)
UO-31
  GI50: 37.8 µM (inactive)
XF498
  GI50: > 100 µM (inactive)
